The test relates to HeLa or JURKAT. Nature of the test: Cytotoxicity assay (Alamar Blue) with guanosine rescue. The test is classed as cell-based. As for the experimental part:
HeLa cells (DSMZ, ACC 57) and Jurkat cells (DSMZ, ACC 282) in exponential growth phase are exposed for 3 days to test compounds. The number of surviving cells is then determined by the Alamar Blue assay (Serotec Inc.). This assay incorporates a fluorometric growth indicator based on detection of metabolic activity. Specifically, the system incorporates an oxidation-reduction indicator that fluoresces in response to chemical reduction of the growth medium resulting from cell growth. As cells grow in culture, innate metabolic activity results in a chemical reduction of the immediate surrounding environment. Continued growth maintains a reduced environment while inhibition of growth maintains an oxidized environment. […] Fluorescence is monitored at 560 nm (Exc.) and 590 nm Em.
HeLa cells (1×10^3) or JURKAT cells (1×10^3) are plated in 100 μl MEM medium (with Earle's salt; Biochrom KG) containing 10% FBS, 2 mM L-glutamine, and non-essential animo acids in 96-well plates and incubated at 37° C. and 5% CO2 atmosphere. […] The fluorescence is then measured as described above and the LD50 is determined based on a sigmoidal dose response regression. […] Any toxicity still detected can then be ascribed either to other biological effects of the of T-L-C conjugate of mycophenolic acid, or is due to the very high intracellular concentration of mycophenolic acid, following concentrative uptake into the cell.
On the technique in general: Alamar Blue is a resazurin reagent that responds to reducing activity.

The structures appear in SMILES notation. Where only a bound is given, the exact number is not on record here.

For the molecule `COc1c(C)c2c(c(O)c1C/C=C(\C)CCC(=O)O)C(=O)OC2` [Mycophenolic acid], the “effect in the presence of guanosine” value (50 μM guanosine) is given as “completely removed”. In addition, for the setting “normal culture conditions”, the IC50 (commonly the concentration at which inhibition is half-maximal) is < 2000 nM.
